Assay results: publication PMC3596469 (European journal of pharmaceutical sciences : official …, 2013)
Where two headings read alike, the source gives them in different places.

Tests used:
[1] = mouse, in vivo, po, 1 mg/kg; cited from earlier work
[2] = for oral bioavailability: from AUC values; for blood levels at the lowest oral dose: oral 0.1 mg/kg, 24 h sampling
[3] = system: plasma epoxides and diols (biomarker of sEH action); test: Plasma oxylipin profile; assay type: in vivo, Male Swiss Webster mice
LPS-challenged mice = test: Food intake and body weight in LPS-challenged murine model; assay type: in vivo, Male Swiss Webster mice; settings: for animals' appetite, 1st day post LPS challenge: oral administration
[4] = system: LPS-induced release of inflammatory cytokines in plasma; test: Plasma cytokines in LPS-challenged murine model; assay type: in vivo, Male Swiss Webster mice
[5] = PK after i.v. injection in mice, 2-compartmental analysis; settings: i.v. 0.01 mg/kg
Human sEH = molecular target: T1, Human sEH (Homo sapiens, UniProt P34913); test: Radioactive sEH inhibition assay; assay type: biochemical; settings: read-out: IC50 Human sEH (value in parentheses); [3H] t-DPPO as substrate
T1 sequence (P34913 1-555): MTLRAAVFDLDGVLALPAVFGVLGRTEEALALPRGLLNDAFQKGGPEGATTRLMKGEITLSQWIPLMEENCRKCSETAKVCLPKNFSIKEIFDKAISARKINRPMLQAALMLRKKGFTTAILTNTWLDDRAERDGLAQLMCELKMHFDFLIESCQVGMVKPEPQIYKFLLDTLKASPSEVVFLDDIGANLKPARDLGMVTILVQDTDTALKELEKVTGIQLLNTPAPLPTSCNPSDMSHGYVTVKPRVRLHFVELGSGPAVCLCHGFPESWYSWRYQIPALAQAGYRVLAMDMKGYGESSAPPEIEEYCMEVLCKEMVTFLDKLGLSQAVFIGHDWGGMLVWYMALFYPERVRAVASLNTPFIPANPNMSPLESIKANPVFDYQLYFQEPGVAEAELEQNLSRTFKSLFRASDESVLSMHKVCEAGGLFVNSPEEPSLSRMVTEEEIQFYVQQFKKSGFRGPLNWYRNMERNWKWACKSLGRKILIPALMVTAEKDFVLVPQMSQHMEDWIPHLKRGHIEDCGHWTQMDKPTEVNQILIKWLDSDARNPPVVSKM

[6] = mouse, in vivo, po
[7] = mice, oral gavage 0.1 mg/kg, blood
[8] = mice, oral gavage 0.3 mg/kg, blood
[9] = mice, oral gavage 1.0 mg/kg, blood
[10] = mice, oral gavage 3.0 mg/kg, blood
[11] = LPS 3 mg/kg + inhibitor 3 mg/kg single dose, terminated 48 h
[12] = LPS 3 mg/kg + inhibitor 3 mg/kg, terminated 24 h
[13] = male, Swiss Webster, mouse, whole blood, po, 0.1 mg/kg
[14] = male, Swiss Webster, mouse, whole blood, po, 0.3 mg/kg
[15] = male, Swiss Webster, mouse, whole blood, po, 1 mg/kg
[16] = male, Swiss Webster, mouse, whole blood, po, 3 mg/kg

## CC(=O)N1CCC(NC(=O)NC23CC4CC(CC(C4)C2)C3)CC1 [APAU, 1-(1-acetypiperidin-4-yl)-3-adamantanylurea]
[1]
  AUCt: 1.4±0.3 0.35±0.15 uM•h
  MRT: 20±4.2 22.2±4.3 h

## O=C(Nc1ccc(OC(F)(F)F)cc1)NC1CCN(C(=O)C2CC2)CC1 [TCPU, 1-(4-trifluoro-methoxy-phenyl)-3-(1-cyclopropanecarboxylpiperidin-4-yl)urea]
[2]; mice, oral gavage 0.1 mg/kg
  AUCt: 2.2 ± 1.1 µM·h
  MRT: 18.9 ± 6.6 h
  Tmax: 5.3 ± 1.2 h
[2]; [7]
  Cmax: 270 ± 120 nM
[2]; mice, oral gavage 0.3 mg/kg
  AUCt: 16.6 ± 8.8 µM·h
  MRT: 16.9 ± 5.4 h
[2]; [8]
  Cmax: 1680 nM
[2]; mice, oral gavage 1.0 mg/kg
  AUCt: 43.8 ± 5.1 µM·h
  MRT: 24.0 ± 1.8 h
  Tmax: 3.2 ± 2.2 h
[2]; [9]
  Cmax: 2560 nM
[2]; mice, oral gavage 3.0 mg/kg
  AUCt: 94.3 ± 8.0 µM·h
  MRT: 32.1 ± 5.6 h
  Tmax: 3.9 ± 2.5 h
[2]; [10]
  Cmax: 5160 nM

## CCC(=O)N1CCC(NC(=O)Nc2ccc(OC(F)(F)F)cc2)CC1 [TPPU, 1-(4-trifluoro-methoxy-phenyl)-3-(1-propionylpiperidin-4-yl)urea]
[2]; mice, oral 0.1 mg/kg vs i.v. 0.01 mg/kg
  oral bioavailability: 43 ± 25%
[2]; mice
  blood levels at the lowest oral dose: above their in vitro IC50 values throughout the sampling time
[2]; mice, oral 0.3 mg/kg vs i.v. 0.01 mg/kg
  oral bioavailability: 36 ± 5%
[2]; mice, oral 1.0 mg/kg vs i.v. 0.01 mg/kg
  oral bioavailability: 31 ± 2%
[2]; mice, oral 3.0 mg/kg vs i.v. 0.01 mg/kg
  oral bioavailability: 18 ± 3%
[2]; mice, oral gavage 0.1 mg/kg
  MRT: 56.9 ± 5.4 h
  Tmax: 2 ± 0 h
[2]; [7]
  Cmax: 445 ± 200 nM
[2]; mice, oral gavage 0.3 mg/kg
  MRT: 69.5 ± 2.2 h
  Tmax: 2 ± 0 h
[2]; [8]
  Cmax: 1560 nM
[2]; mice, oral gavage 1.0 mg/kg
  MRT: 26.8 ± 2.2 h
  Tmax: 2.7 ± 1.2 h
[2]; [9]
  Cmax: 5370 nM
[2]; mice, oral gavage 3.0 mg/kg
  MRT: 24.0 ± 0.2 h
  Tmax: 3.7 ± 1.8 h
[2]; [10]
  Cmax: 7100 nM
[3]; 1- and 2-day post treatment, LPS-challenged mice
  plasma levels of both EETs and EpOMEs: significantly increased
[3]; 2-day post LPS treatment
  plasma levels of both DHOMEs and DHETs: significantly decreased
LPS-challenged mice; 1 mg/kg
  animal's appetite (pilot study): no favorable effect was observed
LPS-challenged mice; oral 3 mg·kg^-1
  animal's appetite at 2 days post treatment (pilot study): improved
LPS-challenged mice; LPS-challenged mice
  animals' appetite, 1st day post LPS challenge: did not improve
LPS-challenged mice; oral, TPPU 3 mg/kg once, t-AUCB 3 mg/kg twice, LPS-challenged mice
  animals' appetite, 2nd day post LPS challenge: significantly improved
[4]; [11]
  IL-6 in plasma: 9 ± 0.5 pg/mL
  IL-10 in plasma: 7.7 ± 0.5 pg/mL
  INF-γ in plasma: 2.0 ± 0.5 pg/mL
  MCP-1 in plasma: 260 ± 50 pg/mL
  TNF-α in plasma: 11 ± 1 pg/mL
[4]; [12]
  IL-6 in plasma: 118 ± 65 pg/mL
  IL-10 in plasma: 8.7 ± 0.4 pg/mL
  INF-γ in plasma: 9.7 ± 3.0 pg/mL
  MCP-1 in plasma: 1970 ± 900 pg/mL
  TNF-α in plasma: 28 ± 14 pg/mL
[4]; LPS-challenged mice
  reduction of cytokine or chemokine release one day after treatment: Neither the administration of TPPU nor the t-AUCB treatment demonstrated a beneficial effect
[5]
  AUCt: 3.5 ± 0.4 µM·h
  Cl (clearance): 20 ± 1.7 mL/min/kg
  T1/2β (half life of elimination phase): >24 h
  Vdss (volume distribution at steady state): 4.8 ± 1.8 L/kg

## 1-chlorophenyl-3-(1-propionylpiperidin-4-yl)urea [CPPU]
Human sEH
  IC50: 280 nM
[6]; 0.1 mg/kg
  AUCt: 2.3 ± 0.4 µM·h
  MRT: 13.1 ± 13.5 h
[6]; 0.3 mg/kg
  AUCt: 6.1 ± 1.7 µM·h
  MRT: 16.4 ± 6.3 h
[6]; 1 mg/kg
  AUCt: 31.7 ± 18.4 µM·h
  MRT: 17.2 ± 7.3 h
[6]; 3 mg/kg
  AUCt: 140 ± 93 µM·h
  MRT: 17.1 ± 1.3 h

## O=C(NC12CC3CC(CC(C3)C1)C2)N[C@H]1CC[C@H](Oc2ccc(C(=O)O)cc2)CC1 [t-AUCB, trans-4-[4-(3-adamantan-1-yl-ureido)-cyclohexyloxy]-benzoic acid, reference compound]
LPS-challenged mice; LPS-challenged mice
  animals' appetite, 1st day post LPS challenge: did not improve

## O=C(Nc1ccc(OC(F)(F)F)cc1)N[C@H]1CC[C@H](Oc2ccc(C(=O)O)cc2)CC1 [t-TUCB, trans-4-[4-[3-(4-Trifluoromethoxy-phenyl)-Ureido]-cyclohexyloxy]-Benzoic acid]
[2]; [13]
  Cmax: < 0.4 nM
[2]; [14]
  AUC(0-t): 0.4 µM·h
  Cmax: 45 nM
  MRT: 12.6 h
  Tmax: 6 h
[2]; [15]
  AUC(0-t): 4.5 µM·h
  Cmax: 410 nM
  MRT: 12.6 h
  Tmax: 5.9 h
[2]; [16]
  AUC(0-t): 16.1 µM·h
  Cmax: 2120 nM
  MRT: 8 h
  Tmax: 2.6 h
[2]; mice
  blood levels at the lowest oral dose: under the respective detection limit

## CS(=O)(=O)N1CCC(NC(=O)Nc2ccc(OC(F)(F)F)cc2)CC1 [TUPS, 1-(1-methanesulfonyl-piperidin-4-yl)-3-(4-trifluoromethoxy-phenyl)-urea]
[2]; [13]
  Cmax: < 0.4 nM
[2]; [14]
  AUC(0-t): 5.3 µM·h
  MRT: 21.5 h
[2]; [15]
  AUC(0-t): 24.2 µM·h
  Cmax: 1650 nM
  MRT: 17.4 h
[2]; [16]
  AUC(0-t): 48.5 µM·h
  Cmax: 2860 nM
  MRT: 22.7 h
[2]; mice
  blood levels at the lowest oral dose: under the respective detection limit
